Laboratory results from US10184115B2, “Mutated cellobiose dehydrogenase with increased substrate specificity” (DIRECTSENS GMBH, priority 2012, dated 2019).

Molecular target: T1, Myriococcum thermophilum cellobiose dehydrogenase (CDH, SEQ ID NO: 1) variant N313S (Thermothelomyces myriococcoides, UniProt A9XK88, N313S)
T1 sequence (A9XK88 22-828 N313S): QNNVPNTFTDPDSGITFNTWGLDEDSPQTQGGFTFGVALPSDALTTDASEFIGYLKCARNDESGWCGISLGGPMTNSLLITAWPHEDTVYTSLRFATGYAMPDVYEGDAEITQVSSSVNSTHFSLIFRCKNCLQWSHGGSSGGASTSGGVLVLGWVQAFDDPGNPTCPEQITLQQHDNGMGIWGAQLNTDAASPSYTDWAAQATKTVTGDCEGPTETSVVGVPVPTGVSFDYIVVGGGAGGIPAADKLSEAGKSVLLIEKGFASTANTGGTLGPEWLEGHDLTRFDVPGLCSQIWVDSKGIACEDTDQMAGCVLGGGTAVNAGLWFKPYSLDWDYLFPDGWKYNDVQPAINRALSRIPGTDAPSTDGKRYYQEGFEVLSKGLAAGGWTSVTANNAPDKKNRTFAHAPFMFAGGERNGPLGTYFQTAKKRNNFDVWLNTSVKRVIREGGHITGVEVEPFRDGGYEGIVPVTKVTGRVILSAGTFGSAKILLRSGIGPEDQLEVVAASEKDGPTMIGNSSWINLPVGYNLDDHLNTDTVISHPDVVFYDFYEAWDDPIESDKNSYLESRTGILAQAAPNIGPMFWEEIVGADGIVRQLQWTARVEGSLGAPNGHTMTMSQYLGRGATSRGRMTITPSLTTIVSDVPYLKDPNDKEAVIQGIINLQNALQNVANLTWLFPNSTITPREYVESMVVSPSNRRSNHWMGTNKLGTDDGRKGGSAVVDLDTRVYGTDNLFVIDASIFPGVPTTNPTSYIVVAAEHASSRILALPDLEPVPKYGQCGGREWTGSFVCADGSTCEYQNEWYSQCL
Assay: Steady-state kinetics, DCIP assay: M. thermophilum CDH N313S
Type: biochemical
Details: apparent, pH 4.5, 30° C.
Procedure: Enzyme activity was assayed at 30° C. using either the DCIP (Karapetyan et al., 2005 Journal of Biotechnology 121: 34-48) or cytochrome c (Canevascini et al., 1991, European Journal of Biochemistry 198: 43-52) as electron acceptor. […] Stock solutions of carbohydrates used for kinetic measurements were prepared in the respective buffer and allowed to stand overnight for mutarotation, while stock solutions of electron acceptors were prepared in water and immediately used. The reaction stoichiometry is 1 for the two-electron acceptor DCIP (1 mole of DCIP reduced per mole of carbohydrate oxidized), but 2 for the one-electron acceptor cytochrome c. Kinetic constants were calculated by fitting the observed data to the Henri-Michaelis-Menten equation or to the adapted model for substrate inhibition using nonlinear least-squares regression and the program SigmaPlot (Systat Software, San Jose, Calif., USA). […]
Recombinant wild-type CDH as well as variants were produced in 1 L baffled flasks. […] Increase in activity was monitored using the DCIP and the cytochrome c enzyme assays. […]
The sample was loaded on a 20 mL PHE Sepharose FF column (HR26/20) equilibrated with 50 mM Na-acetate buffer pH 5.5 containing 20% ammonium sulfate. […] Fractions were tested for CDH activity and pooled according to the highest Reinheitszahl (RZ, calculated from the absorbance ratio 420 nm/280 nm). […]

`OC[C@H]1OC(O)[C@H](O)[C@@H](O)[C@@H]1O` (some centres unmarked) [Glucose, glucose] gave a kcat of 6.8 s⁻¹ and a kcat/KM of 8.8 M⁻¹ s⁻¹.
